Source: patent US12357603B2, “Acyl sulfonamides for treating cancer” (Bayer Aktiengesellschaft, priority 2019, dated 2025)

Key:
[1] = tested on: ESR1 transcription (luciferase signal in MVLN cells); test: Repression of ESR1 transcription, luciferase reporter in MVLN cells; assay type: cell-based; settings: inhibition of luciferase signal in MVLN cells, arithmetic mean
Excerpt: Repression of ESR1 Transcription Upon Treatment of Cells with Compounds
KAT6A controls transcription of the ESR1 gene in breast cancer cells. Compound treatment that interferes with this mechanism was quantified using MVLN cells. These cells constitutively express the ER and are stably transfected with the luciferase (LUC) reporter gene and the corresponding hormone responsive element derived from the 5′-flanking region of the Xenopus Vitellogenin A2 gene (Pons et al., 1990, Demirpense et al., 1993, Joyeux et al., 1993). The repressive effect on ERα transcription activity of a test chemical is directly related to the luciferase measured in the lysate of treated MVLN cells.
Each sample was prepared as duplicate and rim wells were excluded. For luciferase signal determination 100 μl of a 1:1 mixture of Steadylite plus (Perkin Elmer; 6016759) and assay medium was added after 24 h for 15 minutes and measured in Victor X3 (Perkin Elmer). To exclude any effects caused by cell loss during the treatment, cell density was determined using Alamar Blue (Invitrogen; DAL1100). Prior to the luciferase measurement 10 μl Alamar Blue were added to each well and the plates were incubated for 2 h in the incubator. Then fluorescence was measured with Victor X3 (Perkin Elmer) at 530 nm/590 nm.

MDA-MB-436 cells = test: Proliferation assay MDA-MB-436, negative control cell line (Alamar Blue, 144 h); assay type: cell-based; settings: arithmetic mean
Excerpt: (§1) Proliferation Assays for Compound Characterization
(§2) For compound characterization cell survival assays were routinely run in two cell lines. ZR-75-1 is a breast carcinoma cell line containing a focal KAT6A amplification and high KAT6A protein expression. Proliferation of this cell line is inhibited upon treatment with KAT6A inhibitors. As a negative control cell line MDA-MB-436 were used. These cells carry a […] deletion of the KAT6A gene, have a low KAT6A protein expression and are not growth inhibited upon treatment with KAT6A inhibitors.
(§3) For measurements cell lines were plated at the below indicated concentration per […] in 96-well plates in a humidified incubator at 37° C. and 5% CO2.
MDA-MB-436 (CLS, 300278; breast adenocarcinoma); 3000 cells per well; culture medium: DMEM/Ham's F12 (Biochrom #FG 4815) medium containing 2.5% FBS (Biochrom #S0615).
(§4) 24 hours later, cells were treated with compounds (stock solution, 10 mM in DMSO) using the HP D300 Digital Dispenser in a concentration range of 2.0×10E-5 M to 2.0×10E-9 M in a single-dot curve with 9 dilutions and a DMSO concentration of 0.2%. Each sample was prepared as triplicate and rim wells were excluded. Plates were incubated at 37° C. and 5% CO2 for 144 h. Cell viability was measured by adding 10 μL of Alamar Blue Reagent (Invitrogen #DAL 1100) and plates were incubated for 2 h at 37° C. and 5% CO2. Fluorescence was measured at 590 nm wavelength with a Tecan Spark or Victor X3 MTP-Reader (PerkinElmer).

[2] = target: Recombinant human His-tagged Kat6a protein (amino acids 194-810) (Homo sapiens (Human), UniProt Q92794); test: Kat6a activity assay (TR-FRET, acetylation of biotinylated Histone-H4-derived peptide); assay type: biochemical; settings: 60 mins at 22° C., read-out: KAT6A-DPF/HAT domain IC50 [mol/l] (arithmetic mean)
Excerpt: Kat6a inhibitory activities of the compounds described in the present invention were quantified using a Fluorescence Resonance Energy Transfer (TR-FRET) assay which measures acetylation of a synthetic, biotinylated Histone-H4-derived peptide by the enzyme.
Recombinant human His-tagged Kat6a protein (amino acids 194-810), was purified in-house from Baculovirus-infected insect cells (Sf9). Histone H4 peptide (amino acids 1-24, […]-VLRD-K(Btn)-amide), which was used as substrate, was synthesized by Biosyntan GmbH, Berlin, Germany. Acetyl Coenzyme A was purchased from Sigma-Aldrich (#A-2056).
Kat6a was incubated for 60 mins at 22° C. in the presence of different concentrations of test substances (0 μM, and within the range 0.01-20 μM) in assay buffer [25 mM Tris/HCl pH 8, 1 mM EGTA, 2.5 mM Glutathion, 0.02% Chicken Albumin, 0.05% Pluronic F127, 25 mM NaCl, 220 nM H4 peptide and 600 nM Acetyl Coenzym A].
The reaction was stopped by addition of Detection Solution (25 mM HEPES pH 7.5, 0.1% BSA, 22 nM SAXL665 (Cisbio #610SAXLE), 100 μM Anacardic Acid (Enzo #ALX-270-381), 1 nM Anti-Histone H4 (ACETYL K8) Antibody (ABCAM #AB15823) and 0.5 nM Anti-Rabbit IgG Eu (Perkin Elmer #AD0083).
The fluorescence emission at 620 nm and 665 nm after excitation at 330-350 nm was measured in a TR-FRET measuring instrument, for instance a Rubystar or a Pherastar (both from BMG Lab Technologies, Offenburg, Germany) or a Viewlux (Perkin-Elmer). The ratio of the emission at 665 nm and at […] was used as indicator of the amount of acetylated peptide.
The resulting data (ratio) were normalized, taking 0% inhibition as the mean value of control measurements where all reagents were included. In this case 50 nl DMSO were used instead of compounds. […] IC50 values were determined by regression analysis based on a 4 parameter equation (minimum, maximum, ICM, Hill; Y=Max+(Min−Max)/(1+(X/ICso) Hill) using the Screener Software (Genedata).
Table 5 depicts the IC50 values of selected examples in biochemical KAT6A and KAT6B3 assays.

ZR-75-1 cells = test: Proliferation assay ZR-75-1 (Alamar Blue, 144 h); assay type: cell-based; settings: Homo sapiens, ZR-75-1, 144 h, arithmetic mean, read-out: ZR75-1 proliferation assay, EC50 [M] (arithmetic mean)
Excerpt: as §1, §2, §3
ZR-75-1 (ATCC, CRL-1500; breast carcinoma); 3000 cells per well; culture medium: RPMI 1640 (Biochrom #FG 1215) medium containing 2.5% FBS (Biochrom #S0615).
as §4

[3] = Homo sapiens, MDA-MB-436, 144 h

Recombinant human His-tagged Kat6a protein (amino acids 194-810), sequence (Q92794 194-810): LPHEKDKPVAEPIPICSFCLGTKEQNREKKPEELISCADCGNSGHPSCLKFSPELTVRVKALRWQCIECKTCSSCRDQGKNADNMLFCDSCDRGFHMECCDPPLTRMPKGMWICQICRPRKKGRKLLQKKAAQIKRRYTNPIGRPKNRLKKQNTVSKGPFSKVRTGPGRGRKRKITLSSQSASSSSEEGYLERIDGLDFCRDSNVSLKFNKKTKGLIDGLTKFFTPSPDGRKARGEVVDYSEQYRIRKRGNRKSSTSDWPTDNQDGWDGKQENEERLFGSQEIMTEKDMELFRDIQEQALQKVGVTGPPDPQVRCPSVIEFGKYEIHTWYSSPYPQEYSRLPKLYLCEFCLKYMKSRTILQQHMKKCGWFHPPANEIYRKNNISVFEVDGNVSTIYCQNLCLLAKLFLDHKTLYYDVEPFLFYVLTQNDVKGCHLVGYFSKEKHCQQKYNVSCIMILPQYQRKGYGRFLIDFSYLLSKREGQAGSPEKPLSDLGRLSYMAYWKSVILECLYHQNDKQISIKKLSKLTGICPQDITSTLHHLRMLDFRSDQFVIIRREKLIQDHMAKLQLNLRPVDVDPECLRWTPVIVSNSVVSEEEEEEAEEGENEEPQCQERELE

| Structure (SMILES) | IC50 [1] | EC50 (MDA-MB-436 cells) | IC50 [2] | EC50 (ZR-75-1 cells) | IC50 ([1]; Homo sapiens, MVLN) | EC50 (MDA-MB-436 cells; [3]) |
| --- | --- | --- | --- | --- | --- | --- |
| C[C@H](Oc1cccc(OC2CCC2)c1S(=O)(=O)NC(=O)c1cc2ccc(N(C)C)cc2o1)C(F)(F)F (single isomer, unassigned) [Example 221] | 0.582 µM | 8.25 µM | 0.0444 µM |  |  |  |
| C[C@@H](Oc1cccc(OC2CCC2)c1S(=O)(=O)NC(=O)c1cc2ccc(N(C)C)cc2o1)C(F)(F)F (single isomer, unassigned) [Example 222] | 0.595 µM | > 20 µM | 0.0306 µM |  |  |  |
| CCN(C)c1ccc2cc(C(=O)NS(=O)(=O)c3ccc(Cl)cc3Cl)oc2c1 [Example 3, N-(2,4-Dichlorophenyl)sulfonyl-6-[ethyl(methyl)amino]benzofuran-2-carboxamide] |  |  |  | 2e-05 M | 4.28 µM | > 20 µM |
| CN(c1ccccc1)c1ccc2cc(C(=O)NS(=O)(=O)c3ccc(Cl)cc3Cl)oc2c1 [Example 9, N-(2,4-Dichlorophenyl)sulfonyl-6-(N-methylanilino)benzofuran-2-carboxamide] |  |  |  | > 2e-05 M | > 20 µM | > 20 µM |
| CCCN(C)c1ccc2cc(C(=O)NS(=O)(=O)c3ccccc3-c3ccccc3)oc2c1 [Example 37, N-([1,1′-Biphenyl]-2-sulfonyl)-6-[methyl(propyl)amino]-1-benzofuran-2-carboxamide] |  |  |  | > 2e-05 M | 14 µM | > 20 µM |
| COCCN(C)c1ccc2cc(C(=O)NS(=O)(=O)c3ccccc3-c3ccccc3)oc2c1 [Example 39, N-([1,1′-Biphenyl]-2-sulfonyl)-6-[(2-methoxyethyl)(methyl)amino]-1-benzofuran-2-carboxamide] |  |  |  | 3.41e-08 M | 0.1 µM | > 20 µM |
| CN(c1ccc2cc(C(=O)NS(=O)(=O)c3ccccc3-c3ccccc3)oc2c1)C1CCCC1 [Example 46, N-([1,1′-Biphenyl]-2-sulfonyl)-6-[cyclopentyl(methyl)amino]-1-benzofuran-2-carboxamide] |  |  |  | > 2e-05 M | > 20 µM | > 20 µM |
| CN(C)c1ccc2cc(C(=O)NS(=O)(=O)c3ccccc3-c3ccc(CO)cc3)oc2c1 [Example 51, 6-(Dimethylamino)-N-[4′-(hydroxymethyl)[1,1′-biphenyl]-2-sulfonyl]-1-benzofuran-2-carboxamide] |  |  |  | 1.01e-07 M |  | > 20 µM |
| CCCc1ccccc1S(=O)(=O)NC(=O)c1cc2ccc(N(C)C)cc2o1 [Example 52, 6-(Dimethylamino)-N-(2-propylbenzene-1-sulfonyl)-1-benzofuran-2-carboxamide] |  |  |  | 1.94e-07 M |  | > 20 µM |
| COc1cc(C#N)ccc1S(=O)(=O)NC(=O)c1cc2ccc(N(C)C)cc2o1 [Example 53, N-(4-Cyano-2-methoxybenzene-1-sulfonyl)-6-(dimethylamino)-1-benzofuran-2-carboxamide] |  |  | 0.44 µM | 2.64e-07 M |  | > 20 µM |
| O=C(NS(=O)(=O)c1ccccc1-c1ccccc1)c1cc2ccc(N3CCCC3=O)cc2o1 [Example 62, N-([1,1′-Biphenyl]-2-sulfonyl)-6-(2-oxopyrrolidin-1-yl)-1-benzofuran-2-carboxamide] |  |  |  | 1.09e-06 M | 3.07 µM | 11.4 µM |
| CCc1ccc2nc(C)c(S(=O)(=O)NC(=O)c3cc4ccc(N(C)C)cc4o3)n2n1 [Example 94, 6-(Dimethylamino)-N-(6-ethyl-2-methylimidazo[1,2-b]pyridazine-3-sulfonyl)-1-benzofuran-2-carboxamide] |  |  | 0.287 µM |  | 0.46 µM | > 20 µM |
| CN(C)c1ccc2cc(C(=O)NS(=O)(=O)c3c(Cl)cccc3Cl)oc2c1 [Example 98, N-(2,6-Dichlorobenzene-1-sulfonyl)-(dimethylamino)-1-benzofuran-2-carboxamide] |  |  |  | 8.17e-07 M | 0.603 µM | > 20 µM |
| CN(C)c1ccc2cc(C(=O)NS(=O)(=O)Cc3ccccn3)oc2c1 [Example 106, 6-(Dimethylamino)-N-[(pyridin-2-yl)methanesulfonyl]-1-benzofuran-2-carboxamide] |  |  | 3.2 µM |  | > 20 µM | > 20 µM |
| CN(C)c1ccc2cc(C(=O)NS(=O)(=O)c3cc(Cl)cc4cccnc34)oc2c1 [Example 124, N-(6-Chloroquinolone-8-sulfonyl)-6-(dimethylamino)-1-benzofuran-2-carboxamide] |  |  |  |  | 0.254 µM | > 20 µM |
| CC(C)c1ccc(C(C)C)c(S(=O)(=O)NC(=O)c2cc3ccc(N(C)C)cc3o2)c1 [Example 162] |  |  | 0.366 µM | > 2e-05 M | 2.55 µM |  |
| CC(O)c1ccc(Cl)c(S(=O)(=O)NC(=O)c2cc3ccc(N(C)C)cc3o2)c1 (stereo not drawn) [Example 163] |  |  | 4.35 µM | 9.38e-07 M | > 20 µM |  |
| COCCOc1ccc(Cl)c(S(=O)(=O)NC(=O)c2cc3ccc(N(C)C)cc3o2)c1 [Example 164] |  |  | 4.45 µM | > 2e-05 M | > 20 µM |  |
| CN(C)c1ccc2cc(C(=O)NS(=O)(=O)c3cc(C(F)(F)F)ccc3NCC(F)F)oc2c1 [Example 165] |  |  | 1.29 µM | 9.21e-06 M | 5.77 µM |  |
| CCOc1ccccc1S(=O)(=O)NC(=O)c1cc2cc(C(F)(F)F)c(N(C)C)cc2o1 [Example 201, 6-(Dimethylamino)-N-(2-ethoxybenzene-1-sulfonyl)-5-(trifluoromethyl)-1-benzofuran-2-carboxamide] |  |  | 0.137 µM | 2.9e-06 M | 4.23 µM |  |
| CN(C)c1c(Br)cc2cc(C(=O)NS(=O)(=O)c3ccccc3-c3ccccc3)oc2c1F [Example 206, N-([1,1′-Biphenyl]-2-sulfonyl)-5-bromo-6-(dimethylamino)-7-fluoro-1-benzofuran-2-carboxamide] |  |  |  | > 2e-05 M | 9.5 µM | > 20 µM |
| CN(C)c1ccc2cc(C(=O)NS(=O)(=O)c3ccccc3-c3ccccc3)n(C)c2c1 [Example 210, N-([1,1′-Biphenyl]-2-sulfonyl)-6-(dimethylamino)-1-methyl-1H-indole-2-carboxamide] |  |  | 6.66 µM | > 2e-05 M | 11.3 µM |  |
